Source: patent US11834424B2, “Compounds useful as chaperone-mediated autophagy modulators” (ALBERT EINSTEIN COLLEGE OF MEDICINE, priority 2018, dated 2023)

Key:
[1] = system: chaperone-mediated autophagy (CMA) in NIH 3T3 fibroblasts; assay: Photoswitchable KFERQ-Dendra CMA reporter assay in NIH 3T3 fibroblasts; type: cell-based
Procedure: The photoactivatable CMA reporter assay was constructed by inserting a sequence of 21 amino acid of Ribonuclease A bearing the CMA-targeting motif in the N-terminus multicloning site of the photoactivatable protein mCherryl or the photoswitchable protein Dendra 2.
NIH 3T3 fibroblasts were stably transduced with a photoconvertible CMA reporter, KFERQ-Dendra. were photoswitched by exposure to a […] (constant current) LED (Norlux, 405 nm) for 10 minutes and at the desired times fixed in 3% formaldehyde. Test cells were exposed to the indicated concentrations of the compounds for 12 hours (FIG. 3A) or 24 hours (FIG. 3B). Cells were imaged using high content microscopy (Operetta, Perkin Elmer) or by capturing images with an Axiovert 200 fluorescence microscope (Zeiss) with apotome and equipped with a 63/1.4 NA oil objective lens and red (ex. 570/30 nm, em. 615/30 nm), cyan (ex. 365/50 nm and em. 530/45 nm) and green (ex. 475/40 nm and em. 535/45 nm) filter sets (Chroma). Images were acquired with a high-resolution CCD camera after optical sectioning through the apotome. CMA activity measured as the average number of fluorescent puncta (CMA active lysosomes) per cell. Values are expressed relative to values in untreated cells that were assigned an arbitrary value of 1 and are mean of >2,500 cells counted per condition. The S.D. in all instances was <0.01% mean value. Table 2 provides a comparison of compounds CA39.1 and its comparative example CA39 and CA77.01 and its comparative example CA77.

in vitro = settings: for CLint(mic) / Remaining (T = 60 min): 3 μM; for Remaining (T = 60 min): 1 h; for CLint scaled at 3 μM: CLint(liver)
Procedure: Microsome stability was determined in human, rat, and mouse, liver microsomes. Compound at 3 μM final concentration along with 0.5 mg/mL microsome protein and 1 mM NADPH was incubated for 0, 5, 15, 30 and 60 min. As a negative control, test compound was incubated with microsomes in the absence of NADPH. Samples were quenched with methanol and centrifuged for 25 min at 2500 rpm to precipitate proteins. Supernatants were analyzed (N=3) by LC-MS/MS. The In peak area ratio (compound peak area/internal standard peak area) was plotted against time and the gradient of the line determined the elimination rate constant [k=(−1)(slope)].
R^2 is the correlation coefficient of the linear regression for the determination of kinetic constant. T1/2 is the half life and CLint (mic) is the intrinsic clearance. CLint(liver)=CLint (mic)*mg microsomal protein/g liver weight*g liver weight/kg body weight. Liver weight/kg body weight is 20 g/kg for human.

[2] = Pharmacokinetics (plasma and brain levels) in ICR (CD-1) mice; type: in vivo; settings: ICR (CD-1) mice
Procedure: ICR (CD-1) male mice were fasted at least three horns and water was available ad libitum before the study. Animals were housed in a controlled environment, target conditions: temperature 18 to 29° C., relative humidity 30 to 70%. Temperature and relative humidity was monitored daily. An electronic time controlled lighting system was used to provide a 12 h light/12 h dark cycle. 3 mice for each indicated time point. ICR (CD-1) mice were administered CA77 at 1 mg/kg i.v. and 30 mg/kg p.o. or CA77.1 at 1 mg/kg i.v. (FIG. 2A) and 10 mg/kg p.o. (FIG. 2B). Three (3) mice were included in each dosage and time group. Mice were sacrificed and plasma and brains were obtained at 0.083, 0.25, 0.50, 1.0, 2.0, 4.0, 8.0, and 24.0 hours after administration and drug concentration determined using LC-MS/MS. Brains were removed, homogenized with a tissue homogenizer in cold 5% w/v BSA in phosphate buffer saline (PBS). A 100 microliter aliquots of brain samples were dispensed in to glass culture tubes and mixed with ethyl acetate (800 μl), vortexed, and centrifuged. The organic layer was transferred to a fresh culture tube, dried under nitrogen, and reconstituted in mobile phase for quantitation. Pharmacokinetic parameters were determined by standard methods using Phoenix WinNonlin 6.3 software.
Tables 3A and 3B provide the concentrations of CA77 in ICR (CD-1) mouse plasma (3A) and mouse brain (3B) following i.v. administration of 1 mg/kg CA77. Table 3C provides the brain/plasma ratio of CA77 following i.v. administration of 1 mg/kg CA77. Shaded cells indicate data not included in statistics due to aberrant value. BLQ=Below Limit of Quantitation.
Tables 5A and 5B provide the concentrations of CA77.1 in ICR (CD-1) mouse plasma (5A) and mouse brain (5B) following i.v. administration of 1 mg/kg CA77.1. Table 5C provides the brain/plasma ratio of CA77.1 following i.v. administration of 1 mg/kg CA77.1. The plasma and brain pharmacokinetic parameters for CA77.1 are provided in Table 6. *—cells contain data not present in the statistics.

[3] = T1/2, human microsomes, 3 μM compound, 0.5 mg/mL protein, 1 mM NADPH

SMILES | CMA activity (fluorescent puncta per cell, relative to untreated cells = 1) ([1]; Time 5) | CMA activity (fluorescent puncta per cell, relative to untreated cells = 1) ([1]; Time 10) | CMA activity (fluorescent puncta per cell, relative to untreated cells = 1) ([1]; Time 20) | CMA activity (fluorescent puncta per cell, relative to untreated cells = 1) ([1]; Time 30) | half-life at 3 μM (in vitro; human, microsomes) | CLint(mic) (in vitro; human, microsomes) | Remaining (T = 60 min) (in vitro; human, microsomes) | CLint scaled at 3 μM (in vitro; human, microsomes) | half-life at 3 μM (in vitro; [3]) | also measured
Clc1ccc2c(c1)OCC(c1ccc(-c3ccccc3)cc1)=N2 [CA39, 3-([1,1′-biphenyl]-4-yl)-7-chloro-2H-benzo[b][1,4]oxazine, reference compound] | 2.457 | 2.619 | 3.587 | 4.374 | 37.9 min | 36.6 µL/min/mg | 30.1% | 32.9 mL/min/kg |  | 
Clc1ccc2nc(-c3ccc(-c4ccccc4)cc3)cnc2c1 [CA39.1, 2-([1,1′-biphenyl]-4-yl)-6-chloroquinoxaline] | 2.107 | 2.233 | 2.605 | 2.925 | > 145 min | < 9.6 µL/min/mg | 96.0% | < 8.6 mL/min/kg |  | 
O=S(=O)(Nc1ccc(-c2cnc3cc(Cl)ccc3n2)cc1)C(F)(F)F [CA77, reference compound] |  |  |  |  |  |  |  |  |  | AUCINF_obs ([2]; i.v. 1 mg/kg): 35.8 ng·h/mL; AUClast ([2]; i.v. 1 mg/kg): 35.3 ng·h/mL; CL_obs ([2]; i.v. 1 mg/kg): 465 mL/min/kg; Cmax ([2]; i.v. 1 mg/kg): 36.2 ng/mL; MRTINF_obs ([2]; i.v. 1 mg/kg): 57.1 min; T1/2 ([2]; i.v. 1 mg/kg): 38.1 min; Tmax ([2]; i.v. 1 mg/kg): 4.98 min; VSS_obs ([2]; i.v. 1 mg/kg): 26.548 L/kg; F % ([2]; p.o. 30 mg/kg vs i.v. 1 mg/kg): 124%; AUCINF_obs ([2]; p.o. 30 mg/kg): 1458 ng·h/mL; AUClast ([2]; p.o. 30 mg/kg): 1317 ng·h/mL; CL_obs ([2]; p.o. 30 mg/kg): 343 mL/min/kg; Cmax ([2]; p.o. 30 mg/kg): 278 ng/mL; MRTINF_obs ([2]; p.o. 30 mg/kg): 238 min; T1/2 ([2]; p.o. 30 mg/kg): 131 min; Tmax ([2]; p.o. 30 mg/kg): 120 min
O=C(O)Cc1ccccc1Nc1c(Cl)cccc1Cl [Diclofenac] |  |  |  |  | 105 min |  |  | 94.4 mL/min/kg | 15.7 min | 
C[C@]12CC[C@H]3[C@@H](CCC4=CC(=O)CC[C@@]43C)[C@@H]1CC[C@@H]2O [Testosterone] |  |  |  |  |  |  |  |  | 57.5 min | 
